# Strand notation (5' to 3'): a small letter for the sugar, then the base; units joined by * are phosphorothioate-linked, units joined directly phosphodiester-linked; [ ] holds rarer units or linkages, { } end groups; capitals alone tell only the bases. d = 2'-deoxy (DNA)
# How the values were obtained:
# ICAM-1 [1] = experiment: ELISA of ICAM-1 expression in primary human keratinocytes; assay type: cell-based
# Protocol: (§1) Expression of ICAM-1, VCAM-1 and ELAM-1 on the surface of cells can be quantitated using specific monoclonal antibodies in an ELISA. Cells are grown to confluence in 96 well microtiter plates. The cells are stimulated with either interleukin-1 or tumor necrosis factor for 4 to 8 hours to quantitate ELAM-1 and 8 to 24 hours to quantitate ICAM-1 and VCAM-1. Following the appropriate incubation time with the cytokine, the cells are gently washed three times with a buffered isotonic solution containing calcium and magnesium such as Dulbecco's phosphate buffered saline (D-PBS). The cells are then directly fixed on the microtiter plate with 1 to 2% paraformaldehyde diluted in D-PBS for 20 minutes at 25° C. The cells are washed again with D-PBS three times. Nonspecific binding sites on the microtiter plate are blocked with 2% bovine serum albumin in D-PBS for 1 hour at 37° C. Cells are incubated with the appropriate monoclonal antibody diluted in blocking solution for 1 hour at 37° C. Unbound antibody is removed by washing the cells three times with D-PBS. Antibody bound to the cells is detected by incubation with a 1:1000 dilution of biotinylated goat anti-mouse IgG (Bethesda Research Laboratories, Gaithersburg, Md.) in blocking solution for 1 hour at 37° C. Cells are washed three times with D-PBS and then incubated with a 1:1000 dilution of streptavidin conjugated to β-galactosidase (Bethesda Research Laboratories) for 1 hour at 37° C. The cells are washed three times with D-PBS for 5 minutes each. The amount of β-galactosidase bound to the specific monoclonal antibody is determined by developing the plate in a solution of 3.3 mM chlorophenolred-β-D-galactopyranoside, 50 mM sodium phosphate, 1.5 mM MgCl2; pH=7.2 for 2 to 15 minutes at 37° C. The concentration of the product is determined by measuring the absorbance at 575 nm in an ELISA microtiter plate reader. […]
# (§2) Cells grown in 96-well plates were washed three times with Opti-MEM (GIBCO, Grand Island, N.Y.) prewarmed to 37° C. […] ICAM-1 expression was determined as described in Example 1. […]
# ICAM-1 [2] = experiment: Immunoprecipitation of 35S-labelled ICAM-1 from A549 cells; assay type: cell-based, human; settings: 1 μM oligonucleotide
# Protocol: The specificity of the antisense oligonucleotides ISIS 1570 and ISIS 1939 for ICAM-1 was evaluated by immunoprecipitation of ^35S-labelled proteins. A549 cells were grown to confluence in 25 cm^2 tissue culture flasks and treated with antisense oligonucleotides as described in Example 4. The cells were stimulated with interleukin-1β for 14 hours, washed with methionine-free DMEM plus 10% dialyzed fetal calf serum, and incubated for 1 hour in methionine-free medium containing 10% dialyzed fetal calf serum, 1 μM oligonucleotide and interleukin-1β as indicated. ^35S-Methionine/cysteine mixture (Tran^35S-label, purchased from ICN, Costa Mesa, Calif.) was added to the cells to an activity of 100 μCi/ml and the cells were incubated an additional 2 hours. Cellular proteins were extracted by incubation with 50 mM Tris-HCl pH 8.0, 150 mM NaCl, 1.0% NP-40, 0.5% deoxycholate and 2 mM EDTA (0.5 ml per well) at 4° C. for 30 minutes. The extracts were clarified by centrifugation at 18,000×g for 20 minutes. The supernatants were preadsorbed with 200 μl protein G-Sepharose beads (Bethesda Research Labs, Bethesda Md.) for 2 hours at 4° C., divided equally and incubated with either 5 μg ICAM-1 monoclonal antibody (purchased from AMAC Inc., Westbrook Me.) or HLA-A, B antibody (W6/32, produced by murine hybridoma cells obtained from the American Type Culture Collection, Bethesda, Md.) for 15 hours at 4° C. Immune complexes were trapped by incubation with 200 μl of a 50% suspension of protein G-Sepharose (v/v) for 2 hours at 4° C., washed 5 times with lysis buffer and resolved on an SDS-polyacrylamide gel. Proteins were detected by autoradiography.
# ICAM-1 [3] = experiment: ELISA of ICAM-1 expression in A431 cells; assay type: cell-based; settings: human epidermal carcinoma A431 cells
# Protocol: as §1, §2
# ICAM-1 [4] = experiment: ELISA of ICAM-1 cell surface expression in oligonucleotide-pretreated, cytokine-stimulated HUVEC; assay type: cell-based, human
# [5] = system: complementary DNA sequences (ICAM-1 target sites); experiment: Tm of oligonucleotide hybridized to complementary DNA; assay type: binding, human; settings: as E23
# Source text: The antisense oligonucleotides (synthesized as phosphorothioates) were hybridized to their complementary DNA sequences (synthesized as phosphodiesters). […] Tm's and free energies of duplex formation were obtained from fits of data to a two-state model with linear sloping baselines ([…]. and D. H. […] Results are averages of at least three experiments.
Substance,inhibition of ICAM-1 expression (ICAM-1 [1]),decrease of ICAM-1 synthesis (ICAM-1 [2]; 5 units/ml interleukin-1β),inhibition of ICAM-1 expression (ICAM-1 [3]),"inhibition of ICAM-1 expression (ICAM-1 [4]; 0.1 μM oligonucleotide, HUVEC, 8 μM DOTMA, interleukin-1β 5 units/ml) [%]","inhibition of ICAM-1 expression (ICAM-1 [4]; 1 μM oligonucleotide, HUVEC, 8 μM DOTMA, interleukin-1β 5 units/ml) [%]","inhibition of ICAM-1 expression (ICAM-1 [4]; 1 μM, HUVEC stimulated with increasing concentrations of tumor necrosis factor and interleukin-1)",effect on ICAM-1 expression after prehybridization to the sense strand (ICAM-1 [4]; COMPOUND 2 prehybridized to COMPOUND 3 prior to addition to the cells),Tm relative to other oligonucleotides [5],ICAM-1 synthesis (ICAM-1 [2]; interleukin-1β)
"ISIS 1570: phosphorothioate, human ICAM-1 AUG Codon (64-81), SEQ ID NO 1, TGGGAGCCATAGCGAGGC (antisense dT*dG*dG*dG*dA*dG*dC*dC*dA*dT*dA*dG*dC*dG*dA*dG*dG*dC)",inhibit ICAM-1 expression,approximately 50%,inhibit ICAM-1 expression,70,90,inhibits expression of ICAM-1,attenuated,–,–
"ISIS 1939: P=S, human ICAM-1 3′-Untranslated (1952-1971), SEQ ID NO 15, CCCCCACCACTTCCCCTCTC (antisense dC*dC*dC*dC*dC*dA*dC*dC*dA*dC*dT*dT*dC*dC*dC*dC*dT*dC*dT*dC)",inhibit ICAM-1 expression,–,inhibit ICAM-1 expression,–,–,–,–,lower than that of the majority of the other oligonucleotides,near background

# From patent publication US6849612B2, “Oligonucleotide modulation of cell adhesion” (ISIS Pharmaceuticals, Inc., priority 1993, dated 2005)
